According to ChEMBL document CHEMBL1158867, “Activity-guided isolation of constituents of Tephrosia purpurea with the potential to induce the phase II enzyme, quinone reductase” (J Nat Prod, 1997):

Assays:
[1] = Chemoprevention index, ratio of IC50 for mouse Hepa-1c1c7 cells to drug level required to double quinone reductase activity in mouse Hepa-1c1c7 cells; type: functional
[2] = Cytotoxicity against mouse Hepa-1c1c7 cells assessed as cell survival after 2 days by MTT assay; type: functional, cell-based; conditions: Hepa-1c1c7, 48 h

`COc1ccc2c(c1)O[C@H]1c3ccc(O)cc3OC[C@@H]21` showed a Ratio [1] greater than 5.4 and an IC50 [2] greater than 74 µM.
With `COc1cc(-c2coc3cc(O)ccc3c2=O)cc(OC)c1O` the Ratio [1] was greater than 3.7 and the IC50 [2] was greater than 63.7 µM.
With `COc1c(O)ccc2c1OC[C@H]1c3cc4c(cc3O[C@@H]21)OCO4` the Ratio [1] was greater than 4.4 and the IC50 [2] was greater than 63.7 µM.
Work on `COc1cc2c(c3c1C(=O)C[C@@H](c1ccccc1)O3)[C@H]1[C@@H](O2)OC(C)(C)[C@@H]1OC(C)=O` yielded a Ratio [1] greater than 9 and an IC50 [2] greater than 50.7 µM.
`O=c1cc(-c2ccccc2)oc2c1ccc1occc12` [LANCEOLATIN B] gave a Ratio [1] greater than 3.3 and an IC50 [2] greater than 76.3 µM.
Compound `Oc1ccc2c(c1)OC[C@H]1c3cc4c(cc3O[C@@H]21)OCO4` [MAACKIAIN] has a Ratio [1] greater than 8 and an IC50 [2] greater than 70.4 µM.
`COc1c(C(=O)/C=C(\O)c2ccccc2)ccc2occc12` [PONGAMOL] gave a Ratio [1] of 3.1 and an IC50 [2] of 18.7 µM.
Compound `C[S+]([O-])CCCCN=C=S` (stereo not drawn) [SULFORAPHANE] has a Ratio [1] of 25 and an IC50 [2] of 11 µM.
`COc1cc2c(c(O)c1C(=O)/C=C/c1ccccc1)[C@H]1[C@@H](O2)OC(C)(C)[C@@H]1OC(C)=O` [TEPHROPURPURIN] showed a Ratio [1] of 89 and an IC50 [2] of 13.4 µM.
